These results are taken from patent publication US9439906B2, “Dosing regimen associated with long acting injectable paliperidone esters” (Janssen Pharmaceutica NV, priority 2007, dated 2016).

The nature of data set [1]: Comparison of single-dose PK profile in the deltoid to that in the gluteal (summary of phase 1 studies). Type of data set: in vivo, human. Here is the method: The plasma concentration-time profile of paliperidone after single i.m. injection of the paliperidone palmitate formulation at 25-150 mg-eq. has been documented in several studies (Table 4). Details of how the comparison of injection sites study and the dose proportionality studies were performed are provided in Examples 2 and 3.

The nature of data set [2]: Pharmacokinetics in phase 3 study R092670-PSY-3007. Type of data set: in vivo, human. To be noted: Day 8, 3 dose groups. The protocol:
Subjects without source documentation of previous exposure to at least 2 doses of oral risperidone or paliperidone extended-release (ER), at least 1 dose of i.m. RISPERDAL® CONSTA® or paliperidone palmitate, or who were not currently receiving an antipsychotic medication were given 4 to 6 days of paliperidone ER 6 mg/day (or the option of oral risperidone 3 mg/day for subjects in Malaysia) for tolerability testing. Subjects who had source documentation of previous exposure to the above medications and were currently taking another antipsychotic regimen continued their current treatment through Day-1. At the beginning of the double-blind treatment period, subjects were randomly assigned in a 1:1:1:1 ratio to 1 of 4 treatment groups: placebo or paliperidone palmitate 25 mg eq., 100 mg eq., or 150 mg eq. Study medication was administered as 4 doses: an initial i.m. injection of 150 mg eq. of paliperidone palmitate or placebo followed by 3 fixed i.m. doses of placebo or paliperidone palmitate [25, 100, or 150 mg eq.] on Days 8, 36, and 64. The initial injection of study medication was given in the deltoid muscle. Subsequent injections were given either in the deltoid or gluteal muscle at the discretion of the investigator. […] Efficacy and safety were evaluated regularly throughout the study. […]

Data set [3] in a line: Safety and local tolerability in the gluteal versus deltoid multiple-dose study. Particulars: for mean injection site pain VSA score: day 1, 8 hours after injection.
Where [4] appears, read: 100 mg-eq., combined injection sites.

For the compound `CCCCCCCCCCCCCCCC(=O)OC1CCCn2c1nc(C)c(CCN1CCC(c3noc4cc(F)ccc34)CC1)c2=O` (racemic) [paliperidone palmitate, (±)-3-[2-[4-(6-fluoro-1,2-benzisoxazol-3-yl)-1-piperidinyl]ethyl]-6,7,8,9-tetrahydro-2-methyl-4-oxo-4H-pyrido[1,2-α]pyrimidin-9-yl hexadecanoate], the “increase in Cmax versus dose” value in data set [1] (both injection sites, doses greater than 50 mg eq.) is given as “slightly less than dose proportional”. The “median apparent half-life between injection sites” value in data set [1] (single dose, deltoid vs gluteal) is “comparable”. Further, the “total exposure (AUC∞) of paliperidone versus dose” value in data set [1] (single-dose 25 to 150 mg eq., deltoid and gluteal) was “increased proportionally with dose”. The “median paliperidone plasma concentrations in high BMI compared to low BMI (<25 kg/m^2) subjects” value in data set [2] is on record as “lower”. In data set [3] (setting [4]), the “adverse event: diastolic hypotension” value was determined as 12%, the “adverse event: hypotension” value was determined as 14%, the “adverse event: injection site pain” value is listed as 14% and the “adverse event: orthostatic hypotension” value is listed as 24%. Moreover, in data set [3] (100 mg-eq., four injections), the “deaths in the study” value was “no deaths”, the “serious adverse events (worsening of psychosis) that led to discontinuations” value is “four” and the tolerability entry is given as “well tolerated”. Besides, in data set [3] (deltoid), the “mean injection site pain VSA score” value came to 10.8. The “mean injection site pain VSA score” value in data set [3] (gluteal) was found to be 3.3.
